Data published in publication PMC2096529 (Purinergic Signalling, 2005).

Columns and labels:
Assay in all cases: Fluo-3 calcium mobilization, FLIPR, […]1 cells
Assay type in all cases: cell-based
human P2Y2 receptor = human P2Y2 receptor (Homo sapiens, UniProt P41231)
human P2Y6 receptor = human P2Y6 receptor (Homo sapiens, UniProt Q15077)
human P2Y4 receptor = human P2Y4 receptor (Homo sapiens, UniProt P51582)
Chain of human P2Y4 receptor (P51582 whole entry): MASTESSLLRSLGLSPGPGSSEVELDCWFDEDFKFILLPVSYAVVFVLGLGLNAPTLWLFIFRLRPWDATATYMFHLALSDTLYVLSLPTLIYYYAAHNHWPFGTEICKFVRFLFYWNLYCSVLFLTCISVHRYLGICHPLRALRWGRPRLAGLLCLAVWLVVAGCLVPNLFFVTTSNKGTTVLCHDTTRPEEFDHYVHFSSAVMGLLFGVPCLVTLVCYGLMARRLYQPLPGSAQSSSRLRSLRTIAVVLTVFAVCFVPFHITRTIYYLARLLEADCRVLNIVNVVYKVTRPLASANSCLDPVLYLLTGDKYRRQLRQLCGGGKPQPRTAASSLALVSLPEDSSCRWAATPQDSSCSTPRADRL

Chain of human P2Y6 receptor (Q15077 whole entry): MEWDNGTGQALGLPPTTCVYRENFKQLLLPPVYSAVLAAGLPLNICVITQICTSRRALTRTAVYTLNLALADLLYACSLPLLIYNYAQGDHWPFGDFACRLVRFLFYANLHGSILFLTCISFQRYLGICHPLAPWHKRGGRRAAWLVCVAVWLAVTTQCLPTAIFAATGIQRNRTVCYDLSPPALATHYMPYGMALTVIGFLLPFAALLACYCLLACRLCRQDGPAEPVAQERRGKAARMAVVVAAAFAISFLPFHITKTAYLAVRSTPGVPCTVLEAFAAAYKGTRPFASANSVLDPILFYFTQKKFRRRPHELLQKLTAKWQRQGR
Chain of human P2Y2 receptor (P41231 whole entry): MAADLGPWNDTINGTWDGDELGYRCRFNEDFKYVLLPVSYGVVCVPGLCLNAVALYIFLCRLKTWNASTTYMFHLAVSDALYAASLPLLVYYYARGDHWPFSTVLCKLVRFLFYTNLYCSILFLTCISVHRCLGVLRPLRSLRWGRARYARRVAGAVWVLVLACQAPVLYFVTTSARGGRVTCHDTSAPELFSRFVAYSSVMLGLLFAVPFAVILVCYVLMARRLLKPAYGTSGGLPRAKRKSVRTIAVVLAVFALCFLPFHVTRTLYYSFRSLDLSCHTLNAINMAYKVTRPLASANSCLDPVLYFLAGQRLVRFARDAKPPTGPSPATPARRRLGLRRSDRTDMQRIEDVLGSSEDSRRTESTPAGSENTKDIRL

Structure (SMILES)	EC50 (human P2Y2 receptor) [nM]	EC50 (human P2Y6 receptor) [nM]	EC50 (human P2Y4 receptor) [nM]
Nc1ncnc2c1ncn2[C@@H]1O[C@H](COP(=O)(O)OP(=O)(O)OP(=O)(O)O)[C@@H](O)[C@H]1O [ATP]	15	–	–
O=c1ccn([C@@H]2O[C@H](COP(=O)(O)OP(=O)(O)OC[C@H]3O[C@@H](n4ccc(=O)[nH]c4=O)[C@H](O)[C@@H]3O)[C@@H](O)[C@H]2O)c(=O)[nH]1 [compound 4, UP2U]	–	33000	–
O=c1ccn([C@@H]2O[C@H](COP(=O)(O)OP(=O)(O)OP(=O)(O)O)[C@@H](O)[C@H]2O)c(=O)[nH]1 [compound 7, UTP]	15	1470	70
Nc1nc2c(ncn2[C@@H]2O[C@H](COP(=O)(O)OP(=O)(O)OC[C@H]3O[C@@H](n4ccc(=O)[nH]c4=O)[C@H](O)[C@@H]3O)[C@@H](O)[C@H]2O)c(=O)[nH]1 [compound 18, UP2G]	2100	7540	4640
O=c1[nH]cnc2c1ncn2[C@@H]1O[C@H](COP(=O)(O)OP(=O)(O)OC[C@H]2O[C@@H](n3cnc4c(=O)[nH]cnc43)[C@H](O)[C@@H]2O)[C@@H](O)[C@H]1O [compound 22, IP2I]	4800	> 10000	5060
Nc1ccn([C@@H]2O[C@H](COP(=O)(O)OP(=O)(O)OP(=O)(O)OC[C@H]3O[C@@H](n4ccc(=O)[nH]c4=O)[C@H](O)[C@@H]3O)[C@@H](O)[C@H]2O)c(=O)n1 [compound 31, UP3C]	2000	520	16700
Nc1nc2c(ncn2[C@@H]2O[C@H](COP(=O)(O)OP(=O)(O)OP(=O)(O)OC[C@H]3O[C@@H](n4ccc(=O)[nH]c4=O)[C@H](O)[C@@H]3O)[C@@H](O)[C@H]2O)c(=O)[nH]1 [compound 32, UP3G]	–	380	–
O=c1ccn([C@@H]2O[C@H](COP(=O)(O)OP(=O)(O)OP(=O)(O)OC[C@H]3O[C@@H](n4cnc5c(=O)[nH]cnc54)[C@H](O)[C@@H]3O)[C@@H](O)[C@H]2O)c(=O)[nH]1 [compound 33, UP3I]	4500	1310	–
Nc1nc2c(ncn2[C@H]2C[C@H](O)[C@@H](COP(=O)(O)OP(=O)(O)OP(=O)(O)OC[C@H]3O[C@@H](n4ccc(=O)[nH]c4=O)[C@H](O)[C@@H]3O)O2)c(=O)[nH]1 [compound 34, UP3dG]	470	280	1980
Nc1nc2c(ncn2[C@@H]2O[C@H](COP(=O)(O)OP(=O)(O)OP(=O)(O)OC[C@H]3O[C@@H](n4cnc5c(=O)[nH]cnc54)[C@H](O)[C@@H]3O)[C@@H](O)[C@H]2O)c(=O)[nH]1 [compound 37, IP3G]	> 10000	> 10000	6410
O=c1ccn([C@@H]2O[C@H](COP(=O)(O)OP(=O)(O)OP(=O)(O)OP(=O)(O)OC[C@H]3O[C@@H](n4ccc(=O)[nH]c4=O)[C@H](O)[C@@H]3O)[C@@H](O)[C@H]2O)c(=O)[nH]1 [compound 43, UP4U]	–	24800	200
Nc1ccn([C@@H]2O[C@H](COP(=O)(O)OP(=O)(O)OP(=O)(O)OP(=O)(O)OC[C@H]3O[C@@H](n4ccc(=O)[nH]c4=O)[C@H](O)[C@@H]3O)[C@@H](O)[C@H]2O)c(=O)n1 [compound 44, UP4C]	460	12100	850
O=c1ccn([C@@H]2O[C@H](COP(=O)(O)OP(=O)(O)OP(=O)(O)OP(=O)(O)OC[C@H]3O[C@@H](n4cnc5c(=O)[nH]cnc54)[C@H](O)[C@@H]3O)[C@@H](O)[C@H]2O)c(=O)[nH]1 [compound 45, UP4I]	520	> 10000	280
Cc1cn([C@H]2C[C@H](O)[C@@H](COP(=O)(O)OP(=O)(O)OP(=O)(O)OP(=O)(O)OC[C@H]3O[C@@H](n4ccc(=O)[nH]c4=O)[C@H](O)[C@@H]3O)O2)c(=O)[nH]c1=O [compound 46, UP4T]	180	–	350
Nc1ccn([C@H]2C[C@H](O)[C@@H](COP(=O)(O)OP(=O)(O)OP(=O)(O)OP(=O)(O)OC[C@H]3O[C@@H](n4ccc(=O)[nH]c4=O)[C@H](O)[C@@H]3O)O2)c(=O)n1 [compound 51, UP4dC]	–	16000	1220
